Measured values reported in patent US20110142799A1, “MODULATION OF NEURODEGENERATIVE DISEASE BY MODULATING XBP-1 ACTIVITY” (PRESIDENT AND FELLOWS OF HARVARD COLLEGE, priority 2008, published 2011).

Columns and labels:
[1] = test system: mutant SOD1 aggregates in NSC34 cells; assay: High molecular weight, detergent insoluble SOD1 aggregates in NSC34 cells by Western blot; format: cell-based, human; conditions: shXBP-1 and shIRE-1 alpha NSC34 cells expressing SOD1^G85R; 16 h with 10 mM 3-MA or 10 μM wortmannin
Description: Stable motoneuron cell lines with reduced levels of XBP-1, IRE1α, Beclin-1 and EDEM were generated using methods previously described (Hetz et al., 2007) by targeting the respective mRNA with shRNA using the lentiviral expression vector pLKO.1 and puromycin selection. As control empty vector or a shRNA against the luciferase gene were employed. Constructs were generated by The Broad Institute (Boston, USA) based on different criteria for shRNA design (see broad.mit.edu/genome_bio/trc/rnai.html). A total of five different constructs for each gene were screened and the most efficient one was selected for further studies. Targeting sequences identified for the mouse XBP-1, IRE1α, Beclin-1 and EDEM mRNA are 5′-[…]-3′,5′-[…]-3′,5′-[…]-3′,5′-[…]-3′,5′-[…]-3′,5′-[…]-3′, 5′-[…]-3′ and 5′-[…]-3′, respectively. […]
Assays using the transient expression of human SOD1^WT and the mutants SOD1^G93A and SOD1^G85R as EGFP fusion proteins were developed. These constructs were employed to visualize and quantify the formation of intracellular SOD1 inclusions in living cells by fluorescent confocal microscopy. […] SOD1 oligomers were visualized in total cell extracts prepared in RIPA buffer and sonication, and then analyzed by Western blot. […]

[2] = test system: autophagosomes in NSC34 cells; assay: Autophagosome number (LC3-EGFP dots, electron microscopy) in NSC34 cells; format: cell-based; conditions: shXBP-1 cells, 16 h with 10 mM 3-MA
Procedure: Lysosomes or acidic compartments were visualized with two different assays. Living cells were stained with 200 nM lysotraker or 600 nM Acridine orange for 45 min at 37 C and 5% CO2. Cells were washed three times with cold PBS and then fixed for 30 min with 4% formaldehyde on ice, then maintained in PBS containing 0.4% formaldehyde for visualization on a confocal microscope. Autophagosomes were visualized after the expression of LC3-EGFP (Kabeya et al., 2000. EMBO J. 19, 5720-5728) or LC3-dsRED after the transient transfection of low amount of DNA (⅓ amount of recommended concentrations by transfection kit). As control experiments, cells were treated with 10 mM 3-MA autophagy inhibitor. All quantifications were performed at least in a total of 150 cells performed in duplicate for each independent experiment.
Autophagosomes were also visualized by transmission electron microscopy. Cells were fixed with 1.25% formaldehyde, 2.5% glutaraldehyde, 0.03% picric acid in 100 mM sodium cacodylate buffer. After washing with 100 mM sodium cacodylate buffer, tissues were treated for 1 h with 1% osmium tetroxide and 1.5% potassium ferrocyanide, and then 30 min with 0.5% uranyl acetate in 50 mM maleate buffer, pH 5.15. After dehydration in ethanol, cells were treated for 1 h in propylenoxide and then embedded in Epon/Araldite resin. […]

## Cn1cnc(N)c2ncnc1-2 [3-MA, 3-methyladenine]
[1]
  SOD1 aggregation after PI3-kinase / autophagy inhibitor: recovery of mutant SOD1 aggregation in knockdown cells
[2]
  number of cells containing more than four autophagosomes per cell after 3-MA: decreased
